According to ChEMBL document CHEMBL1201862, “PubChem BioAssay data set” (2004):
Activity calls are given as the source filed them. Cut-off read from the data, not from the text of the source: actives have a measured EC50 and inactives only a lower limit.

Assays:
[1] = NIH3T3 cell viability loss – ATP luminescence, mouse fibroblasts, counter-screen, dose response (AID 2010); format: functional, cell-based;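 note: cells exposed to compound for about 90 hours before reading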
[2] = Trypanosoma cruzi growth suppression in host cells – NIH3T3 host cells, beta-gal luminescence, confirmation (AID 2044); format: functional, cell-based;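 note: intracellular parasites grown in NIH/3T3 mouse fibroblasts as host cells; luminescent beta-galactosidase reporter signal from transgenic T. cruzi replicating inside host cells; inhibitors lower the luminescence signal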
[3] = molecular target: T1, Streptokinase A (Streptococcus pyogenes serotype M1, UniProt P10520); assay: viability-normalized secreted streptokinase activity reduction – plasminogen activation absorbance, OD405, dose response (AID 1914); format: functional, Streptococcus pyogenes M1 GAS;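 note: secreted streptokinase activity via plasminogen activation per viability signal from cell pellet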
T1 sequence (P10520 whole entry): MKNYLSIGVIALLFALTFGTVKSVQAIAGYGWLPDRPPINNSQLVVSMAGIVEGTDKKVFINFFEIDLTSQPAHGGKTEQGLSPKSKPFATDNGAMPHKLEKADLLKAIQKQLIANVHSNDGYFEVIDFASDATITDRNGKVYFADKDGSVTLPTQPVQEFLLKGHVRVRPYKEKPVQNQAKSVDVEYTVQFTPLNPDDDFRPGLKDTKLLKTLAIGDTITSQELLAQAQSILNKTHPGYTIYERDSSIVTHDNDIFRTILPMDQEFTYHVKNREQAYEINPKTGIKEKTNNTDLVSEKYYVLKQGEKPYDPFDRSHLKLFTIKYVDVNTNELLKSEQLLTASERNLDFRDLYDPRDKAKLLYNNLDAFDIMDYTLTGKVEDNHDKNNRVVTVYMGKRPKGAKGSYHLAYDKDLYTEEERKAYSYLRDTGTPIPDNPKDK

[4] = tested on: Streptococcus; assay: GAS UMAA2166 growth inhibition – luminescence, BacTiterGlo, counter-screen for streptokinase expression inhibitor project, dose response (AID 1915); format: functional, organism-based;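 note: potency for reduction of bacterial viability or growth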
[5] = tested on: Streptococcus sp. 'group A'; assay: Streptococcus pyogenes SK(-)GAS viability under kanamycin – luminescence, BacTiterGlo, confirmation, counter-screen for streptokinase expression inhibitor project, dose response (AID 1900); format: functional, organism-based

| Compound | EC50 [1] | EC50 [2] | EC50 [3] | EC50 [4] | EC50 [5] |
| --- | --- | --- | --- | --- | --- |
| CCOc1ccccc1OCCOCCN1CCN(Cc2ccccc2)CC1 | > 60 µM (not active) | 0.633 µM (active) |  |  |  |
| COc1ccc(C(=O)CC(Nc2ccc([N+](=O)[O-])cc2)c2ccc(Cl)cc2)cc1 (stereo not drawn) | > 60 µM (not active) | 2.27 µM (active) |  |  |  |
| O=C(C1=C(O)C(=O)N(Cc2ccco2)C1c1cccc(Cl)c1)c1ccco1 (stereo not drawn) |  |  | > 150 µM (not active) | > 150 µM (not active) | 22.7 µM (active) |
| CCCNC(=O)CCc1c(C)nc2c(c(C)nn2-c2ccc(C)cc2)c1C | > 60 µM (not active) | 1.8 µM (active) |  |  |  |
| O=C(CCN1CCN(C/C=C/c2ccccc2)CC1)Nc1cccc(F)c1 | 21.9 µM (active) | 0.383 µM (active) |  |  |  |
| COc1ccc2c(c1)c(CC(=O)NCc1cc([N+](=O)[O-])ccc1O)c(C)n2C(=O)c1ccc(Cl)cc1 |  |  | 20.2 µM (active) | > 150 µM (not active) | 19.1 µM (active) |
| CCOc1ccccc1CN1CCCC(CNC(=O)Cc2ccc(OC)cc2)C1 (stereo not drawn) | > 60 µM (not active) | 1.33 µM (active) |  |  |  |
| CCCCc1nc2cc(C(=O)N3CCC(OCCOC)CC3)ccc2o1 |  |  | > 150 µM (not active) | > 150 µM (not active) | > 150 µM (not active) |
| CCCCN(CC)CCNC(=O)c1cn(-c2ccc(Cl)cc2)c(=O)c2ccccc12 | > 60 µM (inconclusive) | 0.896 µM (active) |  |  |  |
| COc1ccc(N2CCN(C(CNS(=O)(=O)c3cc(F)ccc3F)c3cccnc3)CC2)cc1 (stereo not drawn) | > 60 µM (not active) | 0.206 µM (active) |  |  |  |
| CCOC(=O)c1ccc(Oc2c[nH]nc2-c2ccc(OCC(=O)NN)cc2O)cc1 |  |  | > 150 µM (not active) | > 150 µM (not active) | > 150 µM (not active) |
| COc1cccc(C(=O)Nc2cccc(-c3nnc(-c4ccccc4)o3)c2)c1 |  |  | > 150 µM (not active) | 57.9 µM (active) | 23.2 µM (active) |
| COc1ccc(CCn2c(-c3cc([N+](=O)[O-])cc([N+](=O)[O-])c3)nc3nc4ccccc4nc32)cc1OC | > 60 µM (not active) | 0.105 µM (active) |  |  |  |
| Cc1onc(-c2c(F)cccc2Cl)c1C(=O)NCc1ccc2c(c1)OCO2 |  |  | > 150 µM (not active) | > 150 µM (not active) | > 150 µM (not active) |
| CCCCOc1ccc(/C=C/C2=CC(C)(C)NC(S)=N2)cc1OCC | > 60 µM (inconclusive) | 0.774 µM (active) |  |  |  |
| COc1cccc(C(=O)OC2CCN(C)CC2)c1 | > 30 µM (not active) | 0.233 µM (active) |  |  |  |
| COc1cccc(C(=O)Nc2nc(-c3ccccc3)c(-c3ccccc3)o2)c1 |  |  |  | 5.62 µM (active) | 1.44 µM (active) |
| CCOC(=O)C1CCN(C(=O)C(=O)c2cn(CC(=O)N3CCCCCC3)c3ccccc23)CC1 | > 60 µM (not active) | 0.763 µM (active) |  |  |  |
| CCn1c(=O)c(C(=O)NNC(=O)c2ccc(Cl)cc2Cl)c(O)c2ccccc21 |  |  |  | 7.58 µM (active) | 3.62 µM (active) |
| COc1cc(/C(C)=C/c2ccccc2)c2c(c1)oc1ccccc12 |  |  | 20.9 µM (active) | > 150 µM (not active) | 2.3 µM (active) |
| COc1ccc(C(=O)NC(=S)NNC(=O)COc2ccccc2)cc1 |  |  |  | 3.64 µM (active) | 2.23 µM (active) |
| Fc1cccc(Cc2noc(CN3CCCN(C4Cc5ccccc5C4)CC3)n2)c1 | 45.2 µM (active) | 0.57 µM (active) |  |  |  |
| NC(=O)N/N=C(/CCCCCC/C(=N\NC(N)=O)c1ccccc1)c1ccccc1 |  |  | > 150 µM (not active) | > 150 µM (not active) | 26.6 µM (active) |
| C=CCNC(=S)N/N=C/c1ccc(OCc2ccccc2Cl)cc1 | > 30 µM (not active) | 1.65 µM (active) |  |  |  |
| Cc1ccc(-n2c(-c3ccccc3)cc(/C=N/NC(=O)CC#N)c2-c2ccccc2)cc1 | > 60 µM (not active) | 1.72 µM (active) |  |  |  |
